Data from patent EP4671240A1, “SALT CONTAINING AROMATIC RING DERIVATIVE ANTAGONIST, PREPARATION METHOD THEREFOR, AND APPLICATION THEREOF” (Jiangsu Hansoh Pharmaceutical Group Co., Ltd., priority 2023, dated 2024).
Where a name gives a salt, the structure may show the parent alone.

What was measured:
[1] = Solid stability experiment of crystal forms of salts; format: physicochemical; conditions: for XRPD: after treatment under light, high humidity, high temperature and 50°C/RH75%
Description: To investigate the physical and chemical stability of crystal forms of the compound under high temperature, high humidity, high temperature and high humidity, and light conditions, thereby providing a basis for crystal form screening and storage.
4.1.3.1 Appropriate amounts of crystal form B of the hydrochloride salt, crystal form A of the methanesulfonic acid salt, crystal form A of the sulphuric acid salt, and crystal form A of the hydrobromic acid salt of the compound 4'-((2-butyl-4-oxo-1,3-diazaspiro[4.4]non-1-en-3-yl)methyl-d2)-N-(4-chloro-5-methylisoxazol-3-yl)-2'-(ethoxymethyl)-[1,1'-biphenyl]-2-sulfonamide were weighed and treated under light (5000±500lux), high humidity (25°C, 92.5%), high temperature (60°C), and 50°C±2°C/RH75%±5% for a certain period of time, and then their XRPD, purity and impurity content data were measured.
The maximum individual impurity increase for crystal form B of hydrochloride salt, crystal form A of methanesulfonic acid salt and crystal form A of sulphuric acid salt was determined by comparing Day 20 with Day 0, whereas for crystal form A of hydrobromic acid salt, it was determined by comparing Day 10 with Day 0.

[2] = Liver microsomal metabolism stability assay (rat); format: in vitro ADME; conditions: rat liver microsomes, 60 min, compound 1 µM
Method: (§1) The objective of this experiment was to detect the stability of the example compounds in liver microsomes of rats, dogs and humans.
(§2) Formulation of compound working solution: compound stock solution was added to phosphate buffer to a final concentration of 20 µM.
(§3) Dilution was performed with 100 mM phosphate buffer to a final concentration of 0.625 mg/mL.
(§4) NADPH (reduced nicotinamide adenine dinucleotide phosphate) and UDPGA (uridine diphosphate glucuronic acid) were weighed, and 100 mM phosphate buffer was added to a final concentration of 20 mM.
(§5) 1 mg of Alamethicin was weighed, and 200 µL of DMSO was added to formulate a 5 mg/mL solution. Then dilution was performed with phosphate buffer to a final concentration of 50 µg/mL.
(§6) Stop solution: cold acetonitrile containing 100 ng/mL labetalol hydrochloride and 400 ng/mL tolbutamide as internal standards.
(§7) 400 µL of formulated liver microsomes, 25 µL of compound working solution and 25 µL of Alamethicin were added in sequence to a 96-well plate, and the mixture was pre-incubated at 37°C for 10 min. Then 50 µL of formulated NADPH/UDPGA was added to start the reaction and the mixture was incubated at 37°C. The total volume of the reaction system was 500 µL. The final contents of each component are as follows:
(§8) • Instrument: Shimadzu LC-30 AD; • Chromatographic column: XBridge® C18 (50*4.6 mm, 5 µm particle size); • Mobile phase: A: 0.1% formic acid solution, B: methanol • Elution gradient: 0.2-1.6 min 5% A to 95% A, 3.0-3.1 min 95% A to 5% A • Run time: 4.0 min.
(§9) • Instrument: API5500 liquid chromatography-mass spectrometer, AB Sciex; • Ion source: electrospray ionization source (ESI); • Drying gas: N2, temperature 500°C; • Electrospray voltage: 5000 V; • Detection mode: positive ion detection; • Scan mode: Multiple Reaction Monitoring (MRM) mode.

[3] = Liver microsomal metabolism stability assay (dog); format: in vitro ADME; conditions: dog liver microsomes, 60 min, compound 1 µM
Method: as §1, §2, §3, §4, §5, §6, §7, §8, §9

[4] = Liver microsomal metabolism stability assay (human); format: in vitro ADME; conditions: human liver microsomes, 60 min, compound 1 µM
Method: as §1, §2, §3, §4, §5, §6, §7, §8, §9

[5] = Hygroscopicity experiment (dynamic vapor sorption); format: physicochemical
Description: To investigate the hygroscopicity of crystal form B of the hydrochloride salt of the compound 4'-((2-butyl-4-oxo-1,3-diazaspiro[4.4]non-1-en-3-yl)methyl-d2)-N-(4-chloro-5-methylisoxazol-3-yl)-2'-(ethoxymethyl)-[1,1'-biphenyl]-2-sulfonamide under different relative humidity conditions, thereby providing a basis for compound crystal form screening and storage.
Crystal form B of the hydrochloride salt of the compound 4'-((2-butyl-4-oxo-1,3-diazaspiro[4.4]non-1-en-3-yl)methyl-d2)-N-(4-chloro-5-methylisoxazol-3-yl)-2'-(ethoxymethyl)-[1,1'-biphenyl]-2-sulfonamide was placed in saturated water vapor with different relative humidity to allow the compound and the water vapor to reach dynamic equilibrium, and the percentage of hygroscopic weight gain of the compound after equilibrium was calculated.

[6] = 50°C&75%RH, Day 20 compared with Day 0
[7] = high humidity 25°C, 92.5% RH, Day 20 compared with Day 0
[8] = high temperature 60°C, Day 20 compared with Day 0
[9] = light 5000±500lux, Day 20 compared with Day 0

SMILES	Maximum individual impurity increase [1, 6]	XRPD [1]	Maximum individual impurity increase [1, 7]	Maximum individual impurity increase [1, 8]	Maximum individual impurity increase [1, 9]	Maximum individual impurity increase ([1]; 50°C&75%RH, Day 10 compared with Day 0)	Maximum individual impurity increase ([1]; high humidity 25°C, 92.5% RH, Day 10 compared with Day 0)	Maximum individual impurity increase ([1]; high temperature 60°C, Day 10 compared with Day 0)	Rat Remaining rate [2]	Dog Remaining rate [3]	Human Remaining rate [4]	hygroscopic weight gain ([5]; RH80%, 25°C, DVS)	XRPD pattern after moisture absorption and desorption ([5]; after 2 cycles under 0-95% relative humidity)
[2H]C([2H])(c1ccc(-c2ccccc2S(=O)(=O)Nc2noc(C)c2Cl)c(COCC)c1)N1C(=O)C2(CCCC2)N=C1CCCC [Crystal form A of sulphuric acid salt, 4'-((2-butyl-4-oxo-1,3-diazaspiro[4.4]non-1-en-3-yl)methyl-d2)-N-(4-chloro-5-methylisoxazol-3-yl)-2'-(ethoxymethyl)-[1,1'-biphenyl]-2-sulfonamide]	0.14%	Crystal form unchanged	0.05%	0.11%	0.06%	–	–	–	–	–	–	–	–
[2H]C([2H])(c1ccc(-c2ccccc2S(=O)(=O)Nc2noc(C)c2Cl)c(COCC)c1)N1C(=O)C2(CCCC2)N=C1CCCC [Crystal form A of hydrobromic acid salt, 4'-((2-butyl-4-oxo-1,3-diazaspiro[4.4]non-1-en-3-yl)methyl-d2)-N-(4-chloro-5-methylisoxazol-3-yl)-2'-(ethoxymethyl)-[1,1'-biphenyl]-2-sulfonamide]	–	Crystal form unchanged	–	–	–	0.02%	0.02%	0.05%	–	–	–	–	–
[2H]C([2H])(OCC)c1cc(CN2C(=O)C3(CCCC3)N=C2CCCC)ccc1-c1ccccc1S(=O)(=O)Nc1noc(C)c1Cl [Example 4, 4'-((2-Butyl-4-oxo-1,3-diazospiro[4.4]non-1-en-3-yl)methyl)-N-(4-chloro-5-methylisoxazol-3-yl)-2'-(ethoxydeuteromethyl)-[1,1'-biphenyl]-2-sulfonamide]	–	–	–	–	–	–	–	–	17.1%	23.9%	30.7%	–	–
[2H]C([2H])(c1ccc(-c2ccccc2S(=O)(=O)Nc2noc(C)c2Cl)c(COCC)c1)N1C(=O)C2(CCCC2)N=C1CCCC [Crystal form B of hydrochloride salt, 4'-((2-butyl-4-oxo-1,3-diazaspiro[4.4]non-1-en-3-yl)methyl-d2)-N-(4-chloro-5-methylisoxazol-3-yl)-2'-(ethoxymethyl)-[1,1'-biphenyl]-2-sulfonamide]	<0.01%	Crystal form unchanged	<0.01%	0.02%	0.04%	–	–	–	–	–	–	0.378%	no change
[2H]C([2H])(c1ccc(-c2ccccc2S(=O)(=O)Nc2noc(C)c2Cl)c(COCC)c1)N1C(=O)C2(CCCC2)N=C1CCCC [Crystal form A of methanesulfonic acid salt] [4'-((2-butyl-4-oxo-1,3-diazaspiro[4.4]non-1-en-3-yl)methyl-d2)-N-(4-chloro-5-methylisoxazol-3-yl)-2'-(ethoxymethyl)-[1,1'-biphenyl]-2-sulfonamide]	0.08%	Crystal form unchanged	<0.01%	0.05%	0.09%	–	–	–	–	–	–	–	–
